Measured values taken from patent publication US4429126A, “Sodium salt of 4-oxo-10-(2,3-dimethylpentanamido)-4H-pyrimido[1,2-c]quinozoline-3-carbo xylic acid” (Fujisawa Pharmaceutical Co., Ltd., priority 1982, dated 1984).

test system: PCA (Passive Cutaneous Anaphylaxis) reaction; assay: TEST I: Inhibitory effect on PCA (Passive Cutaneous Anaphylaxis) reaction (64 fold diluted antiserum); assay type: in vivo, male SD (Sprague-Dawley) strain rats; conditions: Rattus norvegicus, intravenous, 10 mg/kg, 5 minutes before antigen challenge, read-out: Inhibitory effect (%), Intravenous administration (10 mg/kg)
Description: A solution of egg albumin (2 mg) in B. pertussis-diphtheria-tetanus mixed vaccine (1 ml) was mixed with Freund incomplete adjuvant (1 ml) to give an emulsion. The emulsion was given subcutaneously in a single dose of 1 ml divided equally (0.25 ml) to the four foot pads of male SD (Sprague-Dawley) strain rats aged 8 weeks, each weighing about 300 g.
10 days after the immunization, blood samples were collected from femoral artery of the rats and allowed to stand under ice-cooling for 5 hours. The separated supernatant was centrifuged at 4° C. (10,000 r.p.m.×1 hour). The antisera thus obtained were stored at -80° C. prior to use.
Male SD-strain rats aged 8 weeks, weighing 290 to 330 g, were used for PCA reaction with the homologus reaginic antiserum as prepared above. Each 0.1 ml of 64 fold diluted antiserum were injected intradermally at separate sites on the back of rats clipped free of hair, and 48 hours later, 1 ml of aqueous solution containing each 5 mg of the egg albumin and Evans blue was injected intravenously to evoke PCA reaction. Test compound was given to the animals orally 60 minutes or intravenously 5 minutes before the challenge with antigen. Control group received vehicle. Each dose group consisted of 5 animals. One hour after the challenge with antigen, the animals were sacrificed and then skinned. Dye spots caused with antiserum were investigated for their size on the reversed side of the skin, respectively. The results were expressed by percent inhibition values calculated from averaged values of the longest and shortest diameters for each spot in comparison with those in control group.

Compound	inhibition in vivo at 10 mg/kg
CCOC(=O)C(=CNc1ncnc2ccc(NC(=O)C(C)C)cc12)C(=O)OCC [Example 16, diethyl [(6-isobutyramido-4-quinazolinylamino)methylene]propanedioate]	100%
CCOC(=O)C(=CNc1ncnc2ccccc12)C(=O)OCC [Test compound No. 1, diethyl[(4-quinazolinylamino)methylene]propanedioate]	100%
CCOC(=O)C(=CNc1ncnc2ccc(CC)cc12)C(=O)OCC [Test compound No. 3, diethyl [(6-ethyl-4-quinazolinylamino)methylene]propanedioate]	100%
CCOC(=O)C(=CNc1ncnc2ccc(C)cc12)C(=O)OCC [compound 2]	100%
CCCc1ccc2ncnc(NC=C(C(=O)OCC)C(=O)OCC)c2c1 [compound 4]	85.9%
CCOC(=O)C(=CNc1ncnc2ccc(N(C)C)cc12)C(=O)OCC [compound 11]	100%
CCOC(=O)C(=CNc1ncnc2ccc(N3CCN(C)CC3)cc12)C(=O)OCC [compound 12]	51.2%
CCOC(=O)C(=CNc1ncnc2ccc(NC(C)=O)cc12)C(=O)OCC [compound 13]	100%
CCOC(=O)C(=O)Nc1ccc2ncnc(NC=C(C(=O)OCC)C(=O)OCC)c2c1 [compound 17]	100%
CCOC(=O)C(=CNc1nc(OC)nc2ccccc12)C(=O)OCC [compound 20]	37.6%
CCOC(=O)C(=CNc1nc(=O)n(C)c2ccccc12)C(=O)OCC [compound 22]	100%
CCOC(=O)c1cnc2c3ccccc3ncn2c1=O [compound 23]	100%
CCOC(=O)c1cnc2c3cc(N4CCN(C)CC4)ccc3ncn2c1=O [compound 34]	100%

same assay, conditions: intravenous, 10 mg/kg, 5 minutes before antigen challenge

Compound	Inhibitory effect (%), Intravenous administration (10 mg/kg)
4-oxo-4H-pyrimido[1,2-c]quinazoline-3-carboxylic acid [Example 27]	100%
4-oxo-10-(2-ethylbutyramido)-4H-pyrimido[1,2-C]quinazoline-3-carboxylic acid [Test compound No. 64]	39.8%
4-oxo-10-(2-methylpropionamido)-4H-pyrimido[1,2-C]quinazoline-3-carboxylicacid [Test compound No. 63]	100%
4-oxo-10-(3-cyclopentylpropionamido)-4H-pyrimido[1,2-C]quinazoline-3-carboxylic acid [Example 53]	85.0%
4-oxo-10-cyclohexanecarboxamido-4H-pyrimido[1,2-C]quinazoline-3-carboxylicacid [Example 52]	100%
4H-pyrimido[1,2-c]quinazoline-4-one [Example 26]	100%
Diethyl [(6-acetamido-4-quinazolinylamino)methylene]propanedioate [Test compound No. 13]	100%
diethyl 4,9-dioxo-4H,9H-pyrimido[1,2-c]pyrimido[1,2-a]quinazoline-3,8-dicarboxylate [Example 25]	100%
diethyl [(6-nitro-4-quinazolinylamino)methylene]propanedioate [Test compound No. 8]	24.4%
diethyl [[6-(2-ethylbutyramido)-4-quinazolinylamino]methylene]propanedioate [Example 54]	48.4%
diethyl [{6-(3,3-dimethylbutyramido)-4-quinazolinylamino}methylene]propanedioate [Example 29]	100%
diethyl [{6-methanesulfonamido-4-quinazolinylamino}methylene]propanedioate [Example 31]	64.9%
dimethyl [[6-(2,3-dimethylpentanamido)-4-quinazolinylamino]methylene]propanedioate [Example 57]	100%
dimethyl [[6-cyclohexanecarboxamido-4-quinazolinylamino]methylene]propanedioate [Example 44]	0%
dimethyl [{6-pivalamido-4-quinazolinylamino}methylene]propanedioate [Example 30]	100%
ethyl 4-oxo-4H-pyrimido[1,2-c]quinazoline-3-carboxylate [Test compound No. 23]	75.4%
ethyl 4-oxo-10-(2-ethylbutyramido)-4H-pyrimido[1,2-C]quinazoline-3-carboxylate [Example 55]	91.0%
ethyl 4-oxo-10-(3-cyclopentylpropionamido)-4H-pyrimido[1,2-C]quinazoline-3-carboxylate [Example 56]	100%
methyl 4-oxo-10-(2-ethylbutyramido)-4H-pyrimido[1,2-C]quinazoline-3-carboxylate [Example 46]	76.3%
methyl 4-oxo-10-(2-methylpropionamido)-4H-pyrimido[1,2-C]quinazoline-3-carboxylate [Example 47]	100%
methyl 4-oxo-10-(3,3-dimethylbutyramido)-4H-pyrimido[1,2-c]quinazoline-3-carboxylate [Example 38]	100%
methyl 4-oxo-10-cyclohexanecarboxamido-4H-pyrimido[1,2-C]quinazoline-3-carboxylate [Example 48]	100%
tetraethyl 2,2-[2,4-quinazolinediylbis(iminomethylidyne)]bispropanedioate [Example 8]	52.7%

same assay, conditions: oral, 100 mg/kg, 60 minutes before antigen challenge

Compound	Inhibitory effect (%), Oral administration (100 mg/kg)
4-oxo-10-pivalamido-4H-pyrimido[1,2-c]quinazoline-3-carboxyic acid [Test compound No. 60]	75.8%
CCOC(=O)C(=CNc1ncnc2ccc(NC(=O)C(C)C)cc12)C(=O)OCC [Example 16, diethyl [(6-isobutyramido-4-quinazolinylamino)methylene]propanedioate]	51.6%
CCOC(=O)C(=CNc1ncnc2ccc(NC(=O)CC)cc12)C(=O)OCC [compound 14]	77.4%
diethyl [(6-amino-4-quinazolinylamino)methylene]propanedioate [Example 15]	58.1%
dimethyl [[6-(2,3-dimethylpentanamido)-4-quinazolinylamino]methylene]propanedioate [Example 57]	100%
dimethyl [[6-cyclohexanecarboxamido-4-quinazolinylamino]methylene]propanedioate [Example 44]	49.1%
ethyl 4-oxo-10-(3,3-dimethylbutyramido)-4H-pyrimido[1,2-c]quinazoline-3-carboxylate [Test compound No. 61]	74.2%
ethyl 4-oxo-10-(3-cyclopentylpropionamido)-4H-pyrimido[1,2-C]quinazoline-3-carboxylate [Example 56]	24.2%
methyl 4-oxo-10-cyclohexanecarboxamido-4H-pyrimido[1,2-C]quinazoline-3-carboxylate [Example 48]	57.5%
methyl 4-oxo-10-pivalamido-4H-pyrimido[1,2-c]quinazoline-3-carboxylate [Test compound No. 59]	72.7%
